In article PMC6225228, “Design, Synthesis and Evaluation of N-pyrazinylbenzamides as Potential Antimycobacterial Agents” (Molecules : A Journal of Synthetic Chemistry and Natural …, 2018):
Where two headings read alike, the source gives them in different places. Marks after values point to notes of the source that are not given here.

Key:
[1] = test system: Mycobacterium tuberculosis H37Rv (Mtb); details: cited from earlier work
[2] = test system: Mycobacterium tuberculosis H37Rv (Mtb); details: cited from earlier work; for Amides MIC (value in parentheses): second value in parentheses
[3] = test system: Mycobacterium smegmatis CCM 4622 (ATCC 607); assay: Antimycobacterial microdilution, M. smegmatis; assay type: cell-based; details: Mycolicibacterium smegmatis, read-out: M. smeg. ATCC 607 MIC
[4] = test system: Enterococcus sp. J 14365/08; assay: Antibacterial microdilution broth, EF; assay type: cell-based; details: Enterococcus, read-out: MIC EF
Candida tropicalis 156 = assay: Antifungal microdilution broth, CT; assay type: cell-based; details: read-out: MIC CT
[5] = test system: Pseudomonas aeruginosa CCM 1961; assay: Antibacterial microdilution broth, PA; assay type: cell-based; details: Pseudomonas aeruginosa, read-out: MIC PA
Candida glabrata 20/I = assay: Antifungal microdilution broth, CG; assay type: cell-based; details: Nakaseomyces glabratus, 20/I, read-out: MIC CG
[6] = test system: Staphylococcus epidermidis H 6966/08; assay: Antibacterial microdilution broth, SE; assay type: cell-based; details: Staphylococcus epidermidis, read-out: MIC SE
[7] = test system: Candida albicans ATCC 44859; assay: Antifungal microdilution broth, CA; assay type: cell-based; details: Candida albicans, read-out: MIC CA
Trichosporon asahii 1188 = assay: Antifungal microdilution broth, TA; assay type: cell-based; details: read-out: MIC TA
[8] = test system: Staphylococcus aureus CCM 4516/08; assay: Antibacterial microdilution broth, SA; assay type: cell-based; details: Staphylococcus aureus
[9] = test system: Staphylococcus aureus H 5996/08 methicillin resistant; assay: microbe, parasite or virus in culture; assay type: cell-based; details: Staphylococcus aureus, MRSA, read-out: MIC MRSA
[10] = test system: Aspergillus fumigatus 231; assay: Antifungal microdilution broth, AF; assay type: cell-based; details: read-out: MIC AF
[11] = test system: Mycobacterium tuberculosis H37Rv CNCTC My 331/88 (ATCC 27294); assay: Antimycobacterial microdilution MABA, M. tuberculosis; assay type: cell-based; details: for MIC: Mycobacterium tuberculosis, read-out: Mtb H37Rv ATCC 27294 MIC, Middlebrook 7H9 with OADC growth supplement, pH = 6.6, MABA
[12] = test system: Escherichia coli CCM 4517; assay: Antibacterial microdilution broth, EC; assay type: cell-based; details: Escherichia coli, read-out: MIC EC
[13] = test system: M. avium ssp. avium CNCTC My 80/72 (ATCC 15769); assay: Antimycobacterial microdilution MABA, M. avium; assay type: cell-based, Mycobacterium avium; details: Mycobacterium avium, ATCC15769, pH 6.6, read-out: M. avium ATCC 15769 MIC
Candida krusei E28 = assay: Antifungal microdilution broth, CK; assay type: cell-based; details: Pichia kudriavzevii, read-out: MIC CK
[14] = test system: Lichtheimia corymbifera 272; assay: Antifungal microdilution broth, LC; assay type: cell-based; details: read-out: MIC LC
[15] = test system: M. kansasii CNCTC My 235/80 (ATCC 12478); assay: Antimycobacterial microdilution MABA, M. kansasii; assay type: cell-based, Mycobacterium kansasii; details: Mycobacterium kansasii, ATCC12478, pH 6.6, read-out: M. kans. ATCC 12478 MIC, Middlebrook 7H9 with OADC, pH 6.6, MABA
[16] = test system: Trichophyton interdigitale 445; assay: Antifungal microdilution broth, TI; assay type: cell-based; details: read-out: MIC TI
[17] = Šula's semisynthetic medium, pH = 5.6, turbidity, first value
[18] = Šula's semisynthetic medium, pH = 5.6, turbidity
[19] = Middlebrook 7H9, pH = 6.6, MABA
[20] = Trichosporon asahii, 1188, 24 h
[21] = Trichosporon asahii, 1188, 48 h
[22] = CCM4516, 24 h, read-out: MIC SA, 24 h
[23] = CCM4516, 48 h, read-out: MIC SA, 48 h
[24] = CCM4516, read-out: MIC against S. aureus, time not stated
[25] = Aspergillus fumigatus, 231, 24 h
[26] = Aspergillus fumigatus, 231, 48 h
[27] = Lichtheimia corymbifera, 272, 24 h
[28] = Lichtheimia corymbifera, 272, 48 h
[29] = Trichophyton interdigitale, 445, 72 h
[30] = Trichophyton interdigitale, 445, 120 h

Cc1ccc(NC(=O)c2cncc(Cl)n2)cc1 [Amide R1=6-Cl R2=4-CH3]
71 [32] %: Amides Inhibition (%) at 6.25 μg/mL (TAACF) [1]

O=C(Nc1cccc(C(F)(F)F)c1)c1cnc(Cl)cn1 [Amide R1=5-Cl R2=3-CF3]
3.13 µg/mL: Amides MIC [2, 17]
6.25 µg/mL: Amides MIC (value in parentheses) [2, 18]

O=C(Nc1cccc(Cl)c1)c1cnccn1 [Amide R1=H R2=3-Cl]
14 [33] %: Amides Inhibition (%) at 6.25 μg/mL (TAACF) [1]
>100 ^b [27] μg/mL: Amides MIC [2, 19]

O=C(Nc1ccccc1Cl)c1cnccn1 [Amide R1=H R2=2-Cl]
50 ^c [19] μg/mL: Amides MIC ([2]; Šula's semisynthetic medium, pH = 5.6, growth indicated by turbidity)

COc1cccc(NC(=O)c2cnccn2)c1 [Amide R1=H R2=3-OCH3]
>100 ^b [27] μg/mL: Amides MIC [2, 19]

O=C(Nc1ccc(O)cc1)c1cnc(Cl)cn1 [Amide R1=5-Cl R2=4-OH]
3.13 µg/mL: Amides MIC [2, 17]
12.5 µg/mL: Amides MIC (value in parentheses) [2, 18]

O=C(Nc1ccc(Cl)cc1)c1cncc(Cl)n1 [Amide R1=6-Cl R2=4-Cl]
65 [33] %: Amides Inhibition (%) at 6.25 μg/mL (TAACF) [1]

O=C(Nc1cccc(O)c1)c1cnc(Cl)cn1 [Amide R1=5-Cl R2=3-OH]
6.25 ^c [18] μg/mL: Amides MIC [2, 17]

COc1cccc(NC(=O)c2cncc(Cl)n2)c1 [Amide R1=6-Cl R2=3-OCH3]
2 [31] %: Amides Inhibition (%) at 6.25 μg/mL (TAACF) [1]

COc1ccccc1NC(=O)c1cncc(Cl)n1 [Amide R1=6-Cl R2=2-OCH3]
6 [35] %: Amides Inhibition (%) at 6.25 μg/mL (TAACF) [1]

COc1ccc(NC(=O)c2cnccn2)cc1 [Amide R1=H R2=4-OCH3]
>100 ^b [27] μg/mL: Amides MIC [2, 19]

O=C(Nc1ccc(Br)cc1)c1cnc(Cl)cn1 [Amide R1=5-Cl R2=4-Br]
3.13 ^c [18] μg/mL: Amides MIC [2, 17]

O=C(Nc1ccccc1Cl)c1cncc(Cl)n1 [Amide R1=6-Cl R2=2-Cl]
100 ^d [34] μg/mL: Amides MIC ([2]; Šula's semisynthetic medium, pH = 5.6, MABA)

O=C(Nc1cccc(Cl)c1)c1cncc(Cl)n1 [Amide R1=6-Cl R2=3-Cl]
14 [33] %: Amides Inhibition (%) at 6.25 μg/mL (TAACF) [1]

O=C(Nc1cccc(C(F)(F)F)c1)c1cncc(Cl)n1 [Amide R1=6-Cl R2=3-CF3]
77 [32] %: Amides Inhibition (%) at 6.25 μg/mL (TAACF) [1]

O=C(Nc1cnc(Cl)cn1)c1ccc(Cl)cc1 [Compound 2l]
≥ 500 µg/mL: MIC [3]
> 125 µM: MIC ([4]; SP.J14365/08, 24 h) | MIC ([4]; SP.J14365/08, 48 h) | MIC (Candida tropicalis 156; Candida tropicalis, 156, 24 h) | MIC (Candida tropicalis 156; Candida tropicalis, 156, 48 h) | MIC ([5]; CCM1961, 72 h) | MIC ([5]; CCM1961, 120 h) | MIC (Candida glabrata 20/I; 24 h) | MIC (Candida glabrata 20/I; 48 h) | MIC ([6]; H6966/08, 24 h) | MIC ([6]; H6966/08, 48 h) | MIC ([7]; ATCC44859, 24 h) | MIC ([7]; ATCC44859, 48 h) | MIC (Trichosporon asahii 1188; [20]) | MIC (Trichosporon asahii 1188; [21]) | MIC [8, 22] | MIC [8, 23] | MIC [8, 24] | MIC ([9]; 24 h) | MIC ([9]; 48 h) | MIC [10, 25] | MIC [10, 26] | MIC ([12]; CCM4517, 24 h) | MIC ([12]; CCM4517, 48 h) | MIC (Candida krusei E28; E28, 24 h) | MIC (Candida krusei E28; E28, 48 h) | MIC [14, 27] | MIC [14, 28] | MIC [16, 29] | MIC [16, 30]
225 to 226.3 °C: melting point
> 100 µg/mL: MIC [11] | MIC [13] | MIC [15]

COc1ccc(C(=O)Nc2cnc(Cl)cn2)cc1 [Compound 2g]
177.8 to 179 °C: melting point
> 125 µM: MIC ([4]; SP.J14365/08, 24 h) | MIC ([4]; SP.J14365/08, 48 h) | MIC (Candida tropicalis 156; Candida tropicalis, 156, 24 h) | MIC (Candida tropicalis 156; Candida tropicalis, 156, 48 h) | MIC ([5]; CCM1961, 72 h) | MIC ([5]; CCM1961, 120 h) | MIC (Candida glabrata 20/I; 24 h) | MIC (Candida glabrata 20/I; 48 h) | MIC ([6]; H6966/08, 24 h) | MIC ([6]; H6966/08, 48 h) | MIC ([7]; ATCC44859, 24 h) | MIC ([7]; ATCC44859, 48 h) | MIC (Trichosporon asahii 1188; [20]) | MIC (Trichosporon asahii 1188; [21]) | MIC [8, 22] | MIC [8, 23] | MIC [8, 24] | MIC ([9]; 24 h) | MIC ([9]; 48 h) | MIC [10, 25] | MIC [10, 26] | MIC ([12]; CCM4517, 24 h) | MIC ([12]; CCM4517, 48 h) | MIC (Candida krusei E28; E28, 24 h) | MIC (Candida krusei E28; E28, 48 h) | MIC [14, 27] | MIC [14, 28] | MIC [16, 29] | MIC [16, 30]
≥ 500 µg/mL: MIC [3]
> 100 µg/mL: MIC [11] | MIC [13] | MIC [15]

O=C(Nc1cccc(Cl)c1)c1cnc(Cl)cn1 [Amide R1=5-Cl R2=3-Cl]
3.13 µg/mL: Amides MIC (value in parentheses) [2, 18]
6.25 µg/mL: Amides MIC [2, 17]

Cc1ccc(C(=O)Nc2cnccn2)cc1 [Compound 1h]
> 100 µg/mL: MIC [11] | MIC [13] | MIC [15]
>100 µg/mL: Mtb H37Rv ATCC 27294 MIC ([11]; Middlebrook 7H9 with OADC growth supplement, pH = 6.6, MABA)
163.3 to 166 °C: melting point
> 500 µM: MIC ([4]; SP.J14365/08, 24 h) | MIC ([4]; SP.J14365/08, 48 h) | MIC (Candida tropicalis 156; Candida tropicalis, 156, 24 h) | MIC (Candida tropicalis 156; Candida tropicalis, 156, 48 h) | MIC (Candida glabrata 20/I; 24 h) | MIC (Candida glabrata 20/I; 48 h) | MIC (Trichosporon asahii 1188; [20]) | MIC (Trichosporon asahii 1188; [21]) | MIC [8, 22] | MIC [8, 23] | MIC ([9]; 24 h) | MIC ([9]; 48 h) | MIC [10, 25] | MIC [10, 26] | MIC ([12]; CCM4517, 24 h) | MIC ([12]; CCM4517, 48 h) | MIC (Candida krusei E28; E28, 24 h) | MIC (Candida krusei E28; E28, 48 h) | MIC [14, 27] | MIC [14, 28] | MIC [16, 29] | MIC [16, 30]
≥ 500 µg/mL: MIC [3]
500 µM: MIC ([5]; CCM1961, 72 h) | MIC ([5]; CCM1961, 120 h) | MIC ([6]; H6966/08, 24 h) | MIC ([6]; H6966/08, 48 h) | MIC ([7]; ATCC44859, 24 h) | MIC ([7]; ATCC44859, 48 h)

COc1ccccc1NC(=O)c1cnccn1 [Amide R1=H R2=2-OCH3]
>100 ^b [27] μg/mL: Amides MIC [2, 19]
